These results are taken from patent US4895956A, “3-aroyl-6,7-dihydro-5H-pyrrolo(1,2-c)imidazole-7-carboxylic acid derivatives” (Hisamitsu Pharmaceutical Co., Ltd., priority 1987, dated 1990).

Molecules are shown by their SMILES. A value given as a limit tells only on which side of the number the result lay.

For data set [1], the system named is gastric mucous. The experiment in a line: Gastric mucous damage test in rats. The class given is in vivo, rat (male rats of Wistar strain). Conditions: oral, rats fasted 18 hours. As for the experimental part:
Gastric mucous damage test in rats
Using male rats of Wistar strain each weighing approximately 160 g, compounds of the present invention were orally administered to the rats previously fasting for 18 hours. Three point five hours later, 1 ml/rat of a 5% Pontamin Sky Blue solution was intravenously injected to the rats. Rats were dissected to remove the stomachs therefrom. A 10 ml of 70% ethanol was injected into the stomachs to fix them, and the stomachs were cut and washed with a 10% hydrogen peroxide/ethanol mixed liquid and then visually observed to fine whether ulcers were formed therein.

In data set [2] the test system is writhing induced by acetic acid. Description: Inhibitory actions on the writhing induced by acetic acid in mice. Format: in vivo, mouse (male ddY strain mice). Conditions: 50 mg/kg, oral, 30 min before 0.6% acetic acid; writhing counted for 10 min, 5 min after acetic acid; vs control group. As to the method: Inhibitory actions on the writhing induced by acetic acid in mice
Male ddY strain mice weighing 20-24 g were used a group consisting 7-9 animals. Each compound was orally administered to mice. Thirty minutes later, 0.6% acetic acid was abdominally administered at a dose of 0.1 ml/10 g. The number of writhing was counted 5 minutes after the administration of the acetic acid for 10 minutes. The inhibitory percentage were determined by comparing the number of writhing to the control group.
For orientation: In writhing tests, fewer writhes than in controls are read as antinociception.

The nature of data set [3]: Acute toxicity test in mice. The following applies: in vivo; male mouse, oral, 14 days observation. The text has this: (§1) Acute toxicity test in rats and mice
(§2) Each group consisting 8 animals such as male Wistar rats weighing about 120 g and male ddY mice weighing about 25 g was used. Compounds of the present invention were orally administered to the animals. General symptoms, changes in body weight and lethality of the test animals had been observed over a period of time for 14 days after the oral administration.

In data set [4] the test system is carrageenin-induced paw edema. The experiment in a line: Inhibitory actions on carrageenin-induced paw edema. Format: in vivo, rat (male rats of Wistar strain). Conditions: 50 mg/kg, oral, 60 min before 1% λ-carrageenin; 3 hours after induction; vs control group. As for the experimental part: Inhibitory actions on carrageenin-induced paw edema
Using male rats of Wistar strain each weighing approximately 150 g, 0.1 ml of 1% λ-carrageenin was subcutaneously injected into the paw of each rat to induce the reaction. Since then, the volume of paw edema was measured in time course. Each compound of the present invention was orally administered to the rats 60 minutes before the induction of the reaction. As shown in the following Table, the results were expressed in terms of inhibitory percentage in comparison with those in control group at 3 hours after the induction of the reaction.
On the technique in general: The carrageenan paw model is a standard test of acute inflammation.

Data set [5] in a line: Acute toxicity test in rats. The following applies: in vivo; male rat, oral, 14 days observation.
Source text: as §1, §2

As to `CC(=O)Oc1ccccc1C(=O)O` [Aspirin, reference compound], the Ulcer formation in data set [1] (100 mg/kg) is reported as 6/6.
For `O=C(c1ccccc1)c1nc(Br)c2n1CCC2C(=O)O` (stereo not drawn) [Compound of Example 5, 3-benzoyl-1-bromo-6,7-dihydro-5H-pyrrolo[1,2-c]imidazole-7-carboxylic acid], in data set [2], the “Inhibition (inhibitory percentage of writhing)” value stood at 87.5%. Moreover, the figures for the median lethal dose (LD50) at 336 h in data set [3] and in data set [5] were greater than 3000 mg/kg and greater than 5000 mg/kg, respectively. Moreover, the “Inhibition (inhibitory percentage of paw edema)” value in data set [4] was found to be 48.4%. In addition, the Ulcer formation in data set [1] (100 mg/kg) is listed as 0/6.
On the same counts, the results for `O=C(c1ccccc1Cl)c1nc(Br)c2n1CCC2C(=O)O` (stereo not drawn) [Compound of Example 9] are 83.3%, greater than 3000 mg/kg, greater than 5000 mg/kg, 50.1% and 0/6.
For the compound `COc1ccc(C(=O)c2ncc3n2CCC3C(=O)O)cc1` (stereo not drawn) [Compound of Example 15], the “Inhibition (inhibitory percentage of writhing)” value in data set [2] stood at 86.3%. Further, the results for the 50% lethal dose (LD50) at 336 h in data set [3] and in data set [5] were greater than 3000 mg/kg and greater than 5000 mg/kg, respectively. Also, the “Inhibition (inhibitory percentage of paw edema)” value in data set [4] came to 53.9%. For the same compound, in data set [1] (100 mg/kg), the Ulcer formation is on record as 0/6.
For `O=C(c1ccc(Cl)cc1)c1nc(Br)c2n1CCC2C(=O)O` (stereo not drawn) [Compound of Example 16] the same measures were 84.5%, greater than 3000 mg/kg, greater than 5000 mg/kg, 50.7% and 0/6.
For `CC(C)c1ccc(C(=O)c2ncc3n2CCC3C(=O)O)cc1` (stereo not drawn) [Compound of Example 24] the same measures were 79.3%, greater than 3000 mg/kg, greater than 5000 mg/kg, 51.6% and 0/6.
With `COc1ccc2c(c1)c(CC(=O)O)c(C)n2C(=O)c1ccc(Cl)cc1` [Indomethacine, reference compound], the Ulcer formation in data set [1] (10 mg/kg) is 6/6.
